Numbering of substitutions follows the chain as printed.
What was measured:
LonP1 F547A/C637V = biological target: T1, LonP1 F547A/C637V (Homo sapiens, UniProt P36776, C637V/F547A); test: Endpoint ATPase assay, LonP1 F547A/C637V; assay type: biochemical
T1 construct: hexa-histidine (N); made in house; host or cells: Rosetta 2 E. coli
T1 sequence (P36776 68-959 F547A/C637V): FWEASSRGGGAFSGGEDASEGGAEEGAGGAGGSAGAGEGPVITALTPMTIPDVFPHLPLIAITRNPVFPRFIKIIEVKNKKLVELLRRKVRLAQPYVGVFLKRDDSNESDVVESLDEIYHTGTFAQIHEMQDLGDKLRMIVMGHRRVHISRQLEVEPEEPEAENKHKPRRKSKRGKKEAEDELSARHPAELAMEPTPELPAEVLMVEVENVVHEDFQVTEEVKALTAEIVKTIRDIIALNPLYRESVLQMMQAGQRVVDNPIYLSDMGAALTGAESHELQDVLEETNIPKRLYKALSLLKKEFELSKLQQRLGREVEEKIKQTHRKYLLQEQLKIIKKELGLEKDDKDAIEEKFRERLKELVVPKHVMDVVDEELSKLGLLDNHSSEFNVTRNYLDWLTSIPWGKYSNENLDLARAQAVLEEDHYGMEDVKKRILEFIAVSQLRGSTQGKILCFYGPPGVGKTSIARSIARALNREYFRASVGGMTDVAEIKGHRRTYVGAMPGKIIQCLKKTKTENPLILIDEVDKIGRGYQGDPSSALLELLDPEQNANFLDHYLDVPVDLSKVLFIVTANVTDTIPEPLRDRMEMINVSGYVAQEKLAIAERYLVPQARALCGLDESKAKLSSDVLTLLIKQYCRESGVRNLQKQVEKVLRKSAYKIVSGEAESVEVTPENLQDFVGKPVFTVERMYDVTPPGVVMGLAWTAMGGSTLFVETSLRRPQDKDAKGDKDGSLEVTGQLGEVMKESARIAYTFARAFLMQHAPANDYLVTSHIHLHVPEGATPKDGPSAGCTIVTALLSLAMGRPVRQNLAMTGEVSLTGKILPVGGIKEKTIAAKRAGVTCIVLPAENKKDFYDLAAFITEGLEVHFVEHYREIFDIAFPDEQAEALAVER
Method: (§1) Human mitochondrial LonP1 and mutants lacking the predicted mitochondrial targeting sequence were fused to an N-terminal hexa-histidine affinity tag, expressed in Rosetta 2 E. Coli, and purified using a nickel agarose column as previously described ([72]) and protein concentration and buffer exchange carried out using Amicon Ultra centrifugal filtration. LonP1 mutant constructs were obtained from the PCR-based QuikChange Site-Directed Mutagenesis Kit.
(§2) ADP-Glo (Promega) assays were performed according to the manufacturer's protocols. Purified wild-type or mutant LonP1 (400 nM monomer), the 26S proteasome (3 nM), or no enzyme controls were preincubated in 96-well plates (60 min, 25 °C) with ten different concentrations of CDDO and its derivatives, TP-82, enoxolone (5 μM) or DMSO vehicle control in buffer (40 mM Tris-HCl (pH 7.5), 20 mM MgCl2, 0.1 mg/ml BSA and 5% DMSO). The 26S and 20S proteasome were also assayed at 0, 0.75, 1.5, 3, 6, and 12 nM in the absence of CDDO derivatives. […] Assay reagents were used to quench further ATPase activity and generate luminescence signals proportional to the concentration of ADP formed. Background (no enzyme control) luminescence values were subtracted, and resultant values were reported as a percentage of the no drug control (100%). […]

LonP1 C637S = biological target: T2, LonP1 C637S (Homo sapiens, UniProt P36776, C637S); test: Endpoint ATPase assay, LonP1 C637S; assay type: biochemical
T2 construct: hexa-histidine (N); made in house; host or cells: Rosetta 2 E. coli
T2 sequence (P36776 68-959 C637S): T1 sequence (P36776 68-959 F547A/C637V) with A480F, V570S
Method: as §1, §2

With CC1(C)CC[C@]2(C(=O)O)CC[C@]3(C)[C@H](C(=O)C=C4[C@@]5(C)C=C(C#N)C(=O)C(C)(C)[C@@H]5CC[C@]43C)[C@@H]2C1 [CDDO, 2-cyano-3,12-dioxooleana-1,9(11)-dien-28-oic acid] the “Fold increase in inhibition compared with WT” value (LonP1 F547A/C637V) was 7.4, the IC50 (LonP1 F547A/C637V; end-point ATPase assay, read-out: CDDO IC50) was 1.9 ± 0.3 µM and the “Fold increase in inhibition compared with WT” value (LonP1 C637S) was 4.7. For the same compound, the IC50 (LonP1 C637S; end-point ATPase assay, N = 1, read-out: CDDO IC50) was 3 µM.

Source: publication PMC8921294, “Inhibition of mitochondrial LonP1 protease by allosteric blockade of ATP binding and hydrolysis via CDDO and its derivatives” (The Journal of Biological Chemistry, 2022)
